The Km is the substrate concentration at which the rate is half of its maximum.

We go through 37 molecules from patent US5164314A, “Microbiologically-prepared diacetyl reductase” (priority 1988, dated 1992).

“And” between values parts separate entries of the source, which are not always exact repeats. Equal values may be shown once. Read-outs that look alike come from different tables or passages of the source.

In data set [1] the test system is diacetyl reductase. Kind of data set: Acetoin oxidation reaction with NAD as coenzyme. It is filed as biochemical, Lactobacillus kefir. The following applies: pH and concentrations altered.
The test system of data set [2] is Lc. enzyme (diacetyl reductase). Briefly: Effect of various metal cations and inhibitors on the diacetyl-reducing activity. The data set is classed as biochemical, Lactobacillus kefir. The following applies: for Inhibition of the enzyme (in words): 1 mM concentration. The method, then:
In order to determine the behavior of the diacetyl-reducing activity in the presence of metal cations and inhibitors, the appropriate substances were added in a concentration of 1 mM to the assay, and the activities were determined after an incubation time of 5 min at 20° C. The absorption characteristics of diacetyl made it necessary to determine two blanks, one measured with replacement of enzyme solution, and the other measured by replacing substrate solution by buffer.

The subject of data set [3] is diacetyl reductase E1. Briefly: Substrate spectrum and KM determination, enzyme E1. It is filed as biochemical, Lactobacillus kefir. More on the design: Rel. Vmax E1: unit not given here.
The test system of data set [4] is diacetyl reductase E2. Briefly: Stereospecificity by oxidation of D(-)- and L(+)-lactic acid, enzyme E2. The data set is classed as biochemical, Lactobacillus kefir. The note with it: NAD+, potassium phosphate buffer pH 7.0. The text has this:
(§1) But since the enzyme can also reduce pyruvate (as shown in Table 5), this provides a method of establishing the stereospecificity on the basis of the pair of substrates (+)- and (-)-lactate. In assay mixtures with D(-)- or L(+)-lactic acid and NAD^+ in potassium phosphate buffer (pH 7.0), the two enzymes E1 and E2 were able to convert D(-)-lactic acid very well, whereas […] was converted with 5% of this activity by E1 and with 4% of this activity by E2.

Data set [5] concerns diacetyl reductase E1. Briefly: Stereospecificity by oxidation of D(-)- and L(+)-lactic acid, enzyme E1. The data set is classed as biochemical, Lactobacillus kefir. The following applies: NAD+, potassium phosphate buffer pH 7.0.
Source text: as §1

Data set [6] relates to diacetyl reductase E2. Briefly: Substrate spectrum and KM determination, enzyme E2. The data set is classed as biochemical, Lactobacillus kefir. The method, then: To determine KM, the activity of both Lactobacillus enzymes was measured as a function of the substrate concentration.
Various substrates were assayed with the most highly-purified preparations of the Lc. enzymes E1 and E2. The maximum conversion rate and KM were measured for each substrate by altering the concentration.

The test system of data set [7] is diacetyl reductase. The method, then:
The enzyme was incubated with various concentrations of manganese chloride in an ice bath for 1 hour. The activity of each sample was then determined and, after 15 and 30 min, the activities were redetermined by renewed NADH addition.

Data set [8] can be described thus: Conversion of diacetyl by available lactate dehydrogenase. It is filed as biochemical. An excerpt:
But it can be stated that, when available lactate dehydrogenase is used, diacetyl is not converted.

[9] abbreviates: 1 mM, incubation 5 min at 20° C.
The mark [10] stands for this setting: most highly-purified E1, read-out: Km E1.
Setting [11] is: most highly-purified E2, read-out: Km E2.

Turning to `CC(=O)C(C)O` (single isomer, unassigned) [acetoin], in the data set with diacetyl reductase [1], the “acetoin oxidation reaction (in words)” value was “never possible to measure”.

For `O[C@H](CS)[C@@H](O)CS` [1,4-Dithioerythritol], the “Residual activity of the Lc. enzyme” value in data set [2] (setting [9]) is 72%.

Take `c1cnc2c(c1)ccc1cccnc12` [1,10-Phenanthroline]: in data set [2], the “Inhibition of the enzyme (in words)” value is “strong inhibition”. The “Residual activity of the Lc. enzyme” value in data set [2] (setting [9]) amounted to 0%.

In the case of `c1ccc(-c2ccccn2)nc1` [2,2'-Bipyridyl], the “Residual activity of the Lc. enzyme” value in data set [2] (setting [9]) came to 19%.

Take `O=C(O)c1cc(SSc2ccc([N+](=O)[O-])c(C(=O)O)c2)ccc1[N+](=O)[O-]` [2,2'-Dinitro-5,5'-dithiodibenzoic acid]: in data set [2], the “Inhibition of the enzyme (in words)” value is reported as “strong inhibition”. Moreover, the “Residual activity of the Lc. enzyme” value in data set [2] (setting [9]) is given as 0%.

For the molecule `CC(=O)CCC(C)=O` [2,5-Hexanedione], the “Rel. Vmax E1” value in the data set on diacetyl reductase E1 [3] (most highly-purified E1) is listed as 7. Further, in the data set on diacetyl reductase E1 [3] (setting [10]), the Km worked out at 26 mM.

With `CC(=O)CC(C)=O` [Acetylacetone, 2,4-pentanedione], the Km is 50 mM with diacetyl reductase E1 [3] (enzyme not named in b63 (E1 in Table 5), read-out: Km for acetylacetone) and 50 mM with diacetyl reductase E1 [3] (setting [10]). The “Rel. Vmax E1” value in the data set with diacetyl reductase E1 [3] (most highly-purified E1) is 8.

For `[Ba+2].[Cl-].[Cl-]` [BaCl2], the “Residual activity of the Lc. enzyme” value in data set [2] (setting [9]) is 102%.

For the molecule `[Ca+2].[Cl-].[Cl-]` [CaCl2], in data set [2] (setting [9]), the “Residual activity of the Lc. enzyme” value is listed as 96%.

On to `[Cl-].[Cl-].[Co+2]` [CoCl2], for which, in data set [2] (setting [9]), the “Residual activity of the Lc. enzyme” value was determined as 102%.

In the case of `[Cl][Cu][Cl]` [CuCl2], the “Inhibition of the enzyme (in words)” value in data set [2] was “strong inhibition”. Further, the “Residual activity of the Lc. enzyme” value in data set [2] (setting [9]) was 0%.

Turning to `C[C@@H](O)C(=O)O` [D(-)-lactic acid], the “Conversion of lactic acid by E2 (in words)” value in the data set with diacetyl reductase E2 [4] is reported as “very well”. Further, the “Conversion of lactic acid by E1 (in words)” value in the data set on diacetyl reductase E1 [5] is listed as “very well”.

On to `CC(=O)C(C)=O` [Diacetyl], for which, in the data set on diacetyl reductase E2 [6], the “diacetyl concentration of substrate saturation, E2” value is “above 1 M”. The Km is 67 mM in the data set on diacetyl reductase E2 [6] (linear regression of Lineweaver-Burke plot, read-out: Km (E2)); 67 mM with diacetyl reductase E2 [6] (setting [11]); 67 mM in the data set with diacetyl reductase E2 [6] (pH 4.25, read-out: KM for the reduction of diacetyl (E2)). For the same molecule, the “Rel. Vmax E2” value with diacetyl reductase E2 [6] (most highly-purified E2) is 100. For the same molecule, in the data set with diacetyl reductase E1 [3], the “diacetyl concentration of substrate saturation, E1” value is listed as “above 1 M”. Also, in the data set on diacetyl reductase E1 [3] (most highly-purified E1), the “Rel. Vmax E1” value amounted to 100.

`CCC(CC)(C(=O)O)C(=O)O` [Diethylmalonic acid]: in data set [2] (setting [9]), the “Residual activity of the Lc. enzyme” value is on record as 100%.

Regarding `O[C@H](CS)[C@H](O)CS` [Dithiothreitol], in data set [2] (setting [9]), the “Residual activity of the Lc. enzyme” value is 106%.

In the case of `O=C(O)CN(CCN(CC(=O)O)CC(=O)O)CC(=O)O` [EDTA], the “Residual activity of the Lc. enzyme” value in data set [2] stood at 94%.

Turning to `CCOC(=O)C(C)=O` [Ethyl pyruvate], the “Rel. Vmax E2” value in the data set with diacetyl reductase E2 [6] (most highly-purified E2) amounted to 77. For the same molecule, the Km was determined as 2.1 mM with diacetyl reductase E2 [6] (setting [11]) and 2.4 mM with diacetyl reductase E1 [3] (setting [10]). The “Rel. Vmax E1” value with diacetyl reductase E1 [3] (most highly-purified E1) was 109.

In the case of `[Cl][Fe][Cl]` [FeCl2], the “Inhibition of the enzyme (in words)” value in data set [2] is listed as “strong inhibition”. In addition, the “Residual activity of the Lc. enzyme” value in data set [2] (setting [9]) amounted to 0%.

Regarding `[Cl][Fe]([Cl])[Cl]` [FeCl3], the “Residual activity of the Lc. enzyme” value in data set [2] (setting [9]) was determined as 82%.

As for `N[C@@H](CCC(=O)N[C@@H](CS)C(=O)NCC(=O)O)C(=O)O` [Gluthathione], in data set [2] (setting [9]), the “Residual activity of the Lc. enzyme” value is 103%.

Take `[Cl][Hg][Cl]` [HgCl2]: the “Inhibition of the enzyme (in words)” value in data set [2] is given as “strong inhibition”. In addition, in data set [2] (setting [9]), the “Residual activity of the Lc. enzyme” value stood at 0%.

Regarding `NC(=O)CI` [Iodoacetamide], in data set [2] (setting [9]), the “Residual activity of the Lc. enzyme” value was found to be 99%.

On to `O=C(O)CI` [Iodoacetic acid], for which the “Residual activity of the Lc. enzyme” value in data set [2] was 102%.

On to `C[C@H](O)C(=O)O` [L(-)-lactic acid, L(+)-lactic acid], for which the “Activity relative to that with D(-)-lactic acid, E2” value with diacetyl reductase E2 [4] was 4%. For the same molecule, in the data set on diacetyl reductase E1 [5], the “Activity relative to that with D(-)-lactic acid, E1” value is recorded as 5%.

On to `N[C@H]1CONC1=O` [L-Cycloserine], for which the “Residual activity of the Lc. enzyme” value in data set [2] (setting [9]) worked out at 100%.

Regarding `[Cl-].[Cl-].[Mg+2]` [MgCl2], in data set [2], the “Inhibition of the enzyme (in words)” value is on record as “strong inhibition”. For the same molecule, in data set [2] (setting [9]), the “Residual activity of the Lc. enzyme” value was determined as 0%.

As to `[Cl][Mn][Cl]` [MnCl2, manganese chloride], the “Residual activity of the Lc. enzyme” value in data set [2] (setting [9]) came out at 91%. The rel. activity in the data set on diacetyl reductase [7] (1 mM manganese, 15 min) is 69%; in the data set on diacetyl reductase [7] (1 mM manganese, 30 min), 0.3%; in the data set with diacetyl reductase [7] (1 mM manganese, t = 0) it was 100%; with diacetyl reductase [7] (2 mM manganese, 15 min) it was 79%; with diacetyl reductase [7] (2 mM manganese, 30 min), 25%; in the data set with diacetyl reductase [7] (2 mM manganese, t = 0) it was 100%. The rel. activity with diacetyl reductase [7] (5 mM manganese, 15 min) is 88%; in the data set with diacetyl reductase [7] (5 mM manganese, 30 min), 39%; in the data set with diacetyl reductase [7] (5 mM manganese, t = 0) it was 100%; in the data set on diacetyl reductase [7] (10 mM manganese, 15 min), 46%; in the data set with diacetyl reductase [7] (10 mM manganese, 30 min), 19%; in the data set on diacetyl reductase [7] (10 mM manganese, t = 0), 100%. For the same molecule, the “Effect on enzyme stability (in words)” value in the data set on diacetyl reductase [7] (5 mM) is recorded as “distinctly stabilizes the enzyme”.

`CCN1C(=O)C=CC1=O` [N-Ethylmaleimide]: the “Residual activity of the Lc. enzyme” value in data set [2] (setting [9]) is given as 112%.

`NC(=O)C1=CN([C@@H]2O[C@H](COP(=O)(O)OP(=O)(O)OC[C@H]3O[C@@H](n4cnc5c(N)ncnc54)[C@H](O)[C@@H]3O)[C@@H](O)[C@H]2O)C=CC1` [NADH, nicotinamide adenine dinucleotide, reduced]: the “Rel. Vmax E2” value with diacetyl reductase E2 [6] (most highly-purified E2) is reported as 100. Besides, the Km with diacetyl reductase E2 [6] (setting [11]) turned out to be 0.036 mM; in the data set with diacetyl reductase E1 [3] (setting [10]) it was 0.03 mM. In the data set with diacetyl reductase E1 [3] (most highly-purified E1), the “Rel. Vmax E1” value is on record as 100.

For the molecule `[Cl][Ni][Cl]` [NiCl2], the “Residual activity of the Lc. enzyme” value in data set [2] (setting [9]) worked out at 100%.

With `O=S(=O)(F)Cc1ccccc1` [PMSF], the “Inhibition of the enzyme (in words)” value in data set [2] is “less inhibition”. For the same molecule, the “Residual activity of the Lc. enzyme” value in data set [2] (setting [9]) was 29% and 30%.

As for `NNc1ccccc1` [Phenylhydrazine], in data set [2], the “Inhibition of the enzyme (in words)” value is on record as “strong inhibition”. Besides, in data set [2] (setting [9]), the “Residual activity of the Lc. enzyme” value is reported as 0%.

Take `[Cl-].[Cl-].[Zn+2]` [ZnCl2]: the “Residual activity of the Lc. enzyme” value in data set [2] (setting [9]) turned out to be 85%.

Regarding `O=C(O)c1cc[c]([Hg+])cc1.[OH-]` [p-Hydroxymercuribenzoate], in data set [2] (setting [9]), the “Residual activity of the Lc. enzyme” value is on record as 79%.

For Diacetylbenzene, the “Rel. Vmax E1” value in the data set with diacetyl reductase E1 [3] (most highly-purified E1) is 1.3.

On to Triton X-100, for which the “Residual activity of the Lc. enzyme” value in data set [2] (setting [9]) was determined as 113%.

Consider lactate dehydrogenase, for which, in data set [8], the “conversion of diacetyl (in words)” value is on record as “not converted”.
